Test results taken from patent US20170065533A1 (YISSUM RESEARCH DEVELOPMENT COMPANY OF THE HEBREW …, priority 2011, published 2017).

Tests used:
[1] = 50 mg/day over one year, cited from earlier work
[2] = cited from earlier work
[3] = cited from earlier work; remark: listed apart in the source
[4] = Conjugation efficiency of MAbs to NPs (BCA assay); format: physicochemical; details: INPs conjugated to MAbs
Experimental: The conjugation efficiency of the macromolecules such as MAbs was determined using the […] Bicinchoninic acid assay (BCA) for protein quantification (Pierce, Ill., USA).

[5] = Particle size, PDI and zeta potential of nanocarriers; format: physicochemical; details: INPs conjugated to MAbs
Experimental: mean diameter and particle size distribution measurements were carried out utilizing an ALV Noninvasive Back Scattering High Performance Particle Sizer (ALV-NIBS HPPS, Langen, Germany) at 25° C. and using water as diluent.
the zeta potential of the NPs was measured using the Malvern zetasizer (Malvern, UK) diluted in HPLC grade water.
The size and zeta potential of the various NPs were measured in water using a DTS zetasizer (Malvern, UK).
The mean diameter and the zeta potential of NCs were characterized using Malvern's Zetasizer (Nano series, Nanos-ZS, UK) at 25° C. and using water as diluent.
Mean diameter and zeta potential of the NCs were characterized using Malvern's Zetasizer (Nano ZSP) at 25° C. For the sample preparation, 200 mg of the anhydrous semi-solid preparation were dissolved in 2 mL HPLC water. The sample was vortexed and further centrifuged (4000 rpm, 10 min). Then, 1.2 mL of the supernatant was collected and centrifuged again (14000 rpm, 10 min). Finally, 1 mL of the obtained supernatant was collected and evaluated.

Molecule	skin status (hydration, epidermal thickness, sebum production, pigmentation) ([1]; aged 60 years and over)	harmful consequences [1]	maximum solubility in mid chain triglycerides [2] [%]	expression of procollagen alpha1 (I) mRNA and protein ([3]; DHEA (5%) in ethanol:olive oil (1:2), 12 times over 4 weeks, aged and young skin)	basal expression of MMP-1 mRNA and protein ([3]; DHEA (5%) topical, 12 times over 4 weeks)	expression of TIMP-1 protein ([3]; DHEA (5%) topical, aged skin)	Conjugation [4] [%]	Size [5] [nm]
C[C@]12CC[C@H](O)CC1=CC[C@@H]1[C@@H]2CC[C@]2(C)C(=O)CC[C@@H]12 [DHEA, dehydroepiandrosterone]	improvement of the skin status	no harmful consequences	1.77	significantly increase	significantly decreased	increased		
rituximab immunonanoparticles: thiolated PEG-PLGA50,000/PLGA48,000 nanoparticles surface-conjugated to rituximab MAb							86.7	73.75
